Reference: patent US20220347144A1, “COMPOSITIONS AND METHODS FOR PREVENTING AND/OR REDUCING WEIGHT GAIN AND ASSOCIATED CONDITIONS” (University of Virginia Patent Foundation, priority 2019, published 2022)
“Also recorded” adds a separate entry of the source.

Experiments:
C57Bl/6J mice [1] = assay: Liver ceramide and lipid composition by LC-MS/MS in mice on control or high fat diets with or without nervonic acid; assay type: in vivo, mouse
Protocol: Animals. Animal experiments were approved by the Animal Care and Use Committee of the University of Virginia (Charlottesville, Va., United States of America). C57Bl/6J mice were obtained from Jackson Laboratories (Bar Harbor, Me., United States of America). Mice were group housed in standard cages with up to five mice per cage with a 12 hour dark/light cycle. All mice were weighed once per week. Weekly food consumption was measured, with the amount consumed per cage averaged amongst the mice in the cage. Body composition was determined by use of an ECHOMRI™-100H Body Composition Analyzer (EchoMRI LLC, Houston, Tex., United States of America).
Diets. Diets were obtained from Research Diets (New Brunswick, N.J., United States of America). The low fat chow was D12450Ji (10 kcal % fat) and the high fat chow was D12492 (60 kcal % fat). These two chows were reformulated by replacing a portion of dietary fat with an ethyl ester of nervonic acid from Nu-Chek Prep (Elysian, Minn., United States of America) to produce isocaloric diets with nervonic acid at 6 g per kg of diet (0.6%). For the three most prevalent fatty acids in these diets: C16 comprised 14.4%, 11.7%, 18.5%, and 18.1%; C18:1 comprised 27.4%, 22.8%, 32%, and 31.4%; and C18:2 comprised 39.6%, 36.2%, 26.9%, and 26.5% of the fatty acid composition of the Cnt, Cnt+NA, HFD, and HFD+NA diets, respectively. Mice were started on diets at ˜8 weeks of age and given ad libitum access.
(§1) Sphingolipid and acylcarnitine measurements by liquid chromatography-mass spectrometry. Sphingolipids were analyzed as described previously (Wijesinghe et al., 2010) for FIG. 1B or with modifications described herein. Liver samples from rats fed a low or high fat diet were obtained from Scot Kimball's laboratory at the Pennsylvania State University (Hershey, Pa.). Mouse liver samples were analyzed with modifications as described previously (Pearson et al., 2020). For FIGS. 1A and 5D, liver homogenates were subjected to lipid extraction and subjected to liquid chromatography-electrospray ionization mass spectrometry was performed on an I-class Acquity with a 2.1 mm×10 cm C18 CSH […] particle size column coupled to an in-line TQ-S mass spectrometer from Waters Corporation (Milford, Mass., United States of America).

HEK293 cells = assay: CerS2 siRNA knockdown in HEK293 cells with nervonic acid treatment, C24:1 ceramide; assay type: cell-based; conditions: 1 μM NA for 24 hours
Protocol: Cell culture. HEK293 cells were grown in DMEM containing 10% FBS. Cells were transfected with Silencer Select siRNA to CerS2 (s26789) or Silencer Select negative control No. 1 using LIPOFECTAMINE® 3000 brand transfection reagent following the manufacturer's protocol. All culture reagents were obtained from Thermo Fisher Scientific (Waltham, Mass., United States of America). 48 hours post-transfection, cells were treated with vehicle or 1 μM nervonic acid for 24 hours.
as §1

C57Bl/6J mice [2] = assay: Fecal caloric content by bomb calorimetry; assay type: in vivo, mouse
Protocol: For determination of energy expenditure, respiratory exchange ratios, and activity, mice were placed in an Oxymax metabolic chamber systems (Comprehensive Laboratory Animal Monitoring System, CLAMS, from Columbus Instruments (Columbus, Ohio, United States of America). Oxygen consumption (V02) and carbon dioxide production (VCO2) were determined for each mouse every 18 minutes over 72 hours with ambulatory activity assessed every minute over this same time period. Only the last two complete light and dark cycles (spanning 48 hours) were used for data analysis. Feces was collected from these studies and shipped to the Mouse Metabolic Phenotyping Core at the University of Texas Southwestern for bomb calorimetry analysis using a Parr 6200 Isoperibol Calorimeter (Parr Instrument Company, Moline, Ill., United States of America).

C57Bl/6J mice [3] = assay: Liver acylcarnitine levels by LC-MS/MS; assay type: in vivo, mouse
Protocol: Acylcarnitines were quantified as their butyl esters as described in Giesbertz et al., 2015. Briefly, liver tissue was extracted in ice-cold methanol spiked with stable-isotopically labeled internal standards (Cambridge Isotope Laboratories, Tewksbury, Mass., United States of America). Insoluble material was pelleted and the supernatant subsequently dried down under vacuum. Samples were solubilized in n-butanol containing 5% acetyl chloride and incubated for 60° C. for 20 minutes, Samples were subsequently dried down again and resuspended in 50:50 water:methanol for LC-ESI-MS/MS analysis. LC-MS/MS analysis was performed on a I-class Acquity with a 2.1 mm×10 cm C18 CSH […] particle size column coupled to an in-line TQ-S mass spectrometer using multiple reaction monitoring. Calibration curves were generated from standard mixtures of acylcarnitines from Cambridge Isotope Laboratories.

C57Bl/6J mice [4] = assay: Observation of overt toxicities in animals fed a NA-enriched diet; assay type: in vivo, mouse
[5] = NA enrichment in both the control diet and the HFD

In the case of (Z)-tetracos-15-enoic acid [NA], the “hepatic C20 and C22-ceramides” value (C57Bl/6J mice [1]; HFD-fed mice, NA-supplemented diet) was “back to control levels”, the “C24:1-lysophosphatidylcholine in liver” value (C57Bl/6J mice [1]; NA-enriched control and HFDs) was “elevated” and the “diacylglyceride C16:0/C24:1 in liver” value (C57Bl/6J mice [1]; NA-enriched control and HFDs) was “elevated”. For the same substance, the “diacylglyceride C18:0/C24:1 in liver” value (C57Bl/6J mice [1]; NA-enriched control and HFDs) was “elevated”, the “diacylglyceride C18:1/C24:1 in liver” value (C57Bl/6J mice [1]; NA-enriched control and HFDs) was “elevated” and the “diacylglyceride C18:2/C24:1 in liver” value (C57Bl/6J mice [1]; NA-enriched control and HFDs) was “elevated”. For the same substance, the “total amounts of ceramides in liver” value (C57Bl/6J mice [1]; between diet groups with and without NA) was “consistent between diet groups”, the “C24:1-hexosylceramide in liver” value (C57Bl/6J mice [1]; both diets, NA 0.6%) was “increasing” and the “C24:1-sphingomyelin in liver” value (C57Bl/6J mice [1]; both diets, NA 0.6%) was “increasing”. For the same substance, the “other ceramides C20-C26 in liver” value (C57Bl/6J mice [1]; normal and HFD fed groups, NA 0.6% by diet weight) was “concomitant decreases”, the “C24:1-ceramides in liver” value (C57Bl/6J mice [1]; normal and HFD fed groups, ethyl ester of NA 0.6% by diet weight) was “increases” and the “C24:1 ceramide after CerS2 knockdown” value (HEK293 cells) was “only partially restored”. The fecal caloric content (C57Bl/6J mice [2]; HFD+NA versus HFD) was “No differences”, the fecal caloric content (C57Bl/6J mice [2]; control+NA versus control) was “No differences” and the “dicarboxyl-acylcarnitines C5 (C5-DC) and C6 (C6-DC) levels in liver” value (C57Bl/6J mice [3]; HFD enriched with NA) was “teductions”. The “long-chain acylcarnitines in liver” value (C57Bl/6J mice [3]; HFD+NA versus HFD) was “significant decreases; also recorded: largely restored to control levels”, the “hydroxyl-fatty acylcarnitines in liver” value (C57Bl/6J mice [3]; NA enrichment in both diets, C4-OH, C6-OH, C10-OH, C8-OH) was “increased” and the “acetyl-carnitine (C2) in liver” value (C57Bl/6J mice [3]; [5]) was “increased”. For the same substance, the “free carnitine (C0) in liver” value (C57Bl/6J mice [3]; [5]) was “increased” and the “overt toxicities (ruffled fur, anorexia, cachexia, skin tenting, skin ulcerations, diarrhea, death)” value (C57Bl/6J mice [4]) was “No overt toxicities”.
